Measured values reported in patent publication US20220041623A1, “INDOLE MACROCYCLIC DERIVATIVE, PREPARATION METHOD THEREOF AND APPLICATION THEREOF IN MEDICINE” (JIANGSU HENGRUI MEDICINE CO., LTD., priority 2018, published 2022).

Biological target: T1, MCL-1 protein (Homo sapiens, UniProt Q07820)
T1 construct: Bim peptide bought from R&D, 3526/1 NA
Assay: MCL-1 protein binding experiment (HTRF, MCL-1/Bim)
Conditions: for inhibition at up to 10 µM / Maximum inhibition rate (%): HTRF MCL-1/Bim binding, initial concentration 10 μM; for inhibition at up to 10 µM: read-out: Maximum inhibition rate (%); for Ki: HTRF, 0.1 nM His-MCL-1, 2.5 nM bio-Bim, room temperature
Protocol: The following method was used to determine the binding ability of the compound of the present invention to MCL-1 protein. The experimental method is briefly described as follows.
MCL-1 inhibitors can bind to MCL-1 protein to prevent the binding of MCL-1 to Bim protein. The experiment evaluates the binding ability of MCL-1 inhibitor to MCL-1 protein by detecting the binding of MCL-1 to Bim protein through HTRF method, and the activity of the compound was evaluated according to the Ki value.
The mixture was incubated at room temperature for 2 hours, followed by the detection of fluorescence signals at 620 nm and 665 nm by PHERAstar. The data was processed by GraphPad software.

T1 sequence (Q07820 171-327): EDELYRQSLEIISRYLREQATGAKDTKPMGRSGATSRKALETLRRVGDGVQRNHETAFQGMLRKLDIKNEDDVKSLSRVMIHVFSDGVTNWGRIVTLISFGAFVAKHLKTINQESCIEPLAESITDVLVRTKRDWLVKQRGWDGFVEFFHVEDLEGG

Compound | inhibition at up to 10 µM [%] | Ki [nM] | Maximum inhibition rate (%) | Maximum inhibition rate (%) (10 µM)
Cc1c2c(nn1C)CSCc1cc(n(C)n1)CSc1cc(c3ccccc3c1)OCCCn1c(C(=O)O)cc3c-2c(Cl)ccc31 (single isomer, unassigned) [Example 1-1, (Ra)-17-Chloro-5,13-14-trimethyl-28-oxa-2,9-dithia-5,6,12,13,24-pentaazaheptacyclo[27.7.1.1^4,7.0^11,15.0^16,21.0^20,24.0^30,35]octatriaconta-1(37),4(38),6,11,14,16,18,20,22,29,31,33,35-tridecaene-23-carboxylic acid] | 100 | 0.36 |  | 
Cc1c2c(nn1C)CSCc1cc(n(C)n1)CSc1cc(c3ccccc3c1)OCCCn1c(C(=O)O)cc3c-2c(Cl)ccc31 (single isomer, unassigned) [Example 1-2, (Sa)-17-Chloro-5,13-14-trimethyl-28-oxa-2,9-dithia-5,6,12,13,24-pentaazaheptacyclo[27.7.1.1^4,7.0^11,15.0^16,21.0^20,24.0^30,35]octatriaconta-1(37),4(38),6,11,14,16,18,20,22,29,31,33,35-tridecaene-23-carboxylic acid] |  | 56 | 100 | 
Cc1c(C(=O)O)n2c3ccc(Cl)c(c13)-c1c(nn(C)c1C)CSCc1cc(n(C)n1)CSc1cc(c3ccccc3c1)OCCC2 (single isomer, unassigned) [Example 2-2, (Sa)-17-Chloro-5,13,14,22-tetramethyl-28-oxa-2,9-dithia-5,6,12,13,24-pentaazaheptacyclo[27.7.1.1^4,7.0^11,15.0^16,21.0^20,24.0^30,35]octatriaconta-1(37),4(38),6,11,14,16,18,20,22,29,31,33,35-tridecaene-23-carboxylic acid] |  | 65 |  | 95
Cc1c(C(=O)O)n2c3ccc(Cl)c(c13)-c1c(nn(C)c1C)CN(C)Cc1cc(n(C)n1)CSc1cc(c3ccccc3c1)OCCC2 (single isomer, unassigned) [Example 3-1, (Ra)-17-Chloro-5,9,13,14,22-pentamethyl-28-oxa-2-thia-5,6,9,12,13,24-hexaazaheptacyclo[27.7.1.1^4,7.0^11,15.0^16,21.0^20,24.0^30,35]octatriaconta-1(37),4(38),6,11,14,16,18,20,22,29,31,33,35-tridecaene-23-carboxylic acid] | 100 | 0.18 |  | 
Cc1c(C(=O)O)n2c3ccc(Cl)c(c13)-c1c(nn(C)c1C)CN(C)Cc1cc(n(C)n1)CSc1cc(c3ccccc3c1)OCCC2 (single isomer, unassigned) [Example 3-2, (Sa)-17-Chloro-5,9,13,14,22-pentamethyl-28-oxa-2-thia-5,6,9,12,13,24-hexaazaheptacyclo[27.7.1.1^4,7.0^11,15.0^16,21.0^20,24.0^30,35]octatriaconta-1(37),4(38),6,11,14,16,18,20,22,29,31,33,35-tridecaene-23-carboxylic acid] |  | 14 |  | 99
Cc1c(C(=O)O)n2c3ccc(Cl)c(c13)-c1c(nn(C)c1C)CSCc1cc(n(C)n1)CSc1cc3c(c(c1)OCCC2)CCCC3 (single isomer, unassigned) [Example 7-2, (Sa)-17-Chloro-5,13,14,22-tetramethyl-28-oxa-2,9-dithia-5,6,12,13,24-pentaazaheptacyclo[27.7.1.1^4,7.0^11,15.0^16,21.0^20,24.0^30,35]octatriaconta-1(37),4(38),6,11,14,16,18,20,22,29,35-undecaene-23-carboxylic acid] |  | 15 |  | 100
Cc1c(C(=O)O)n2c3ccc(Cl)c(c13)-c1c(nn(C)c1C)CSCc1cc(n(C)n1)CCc1cc3c(c(c1)OCCC2)CCCC3 (single isomer, unassigned) [Example 8-2, (Sa)-17-Chloro-5,13,14,22-tetramethyl-28-oxa-9-thia-5,6,12,13,24-pentaazaheptacyclo[27.7.1.1^4,7.0^11,15.0^16,21.0^20,24.0^30,35]octatriaconta-1(37),4(38),6,11,14,16,18,20,22,29,35-undecaene-23-carboxylic acid] |  | 57 |  | 98
Cc1c(C(=O)O)n2c3ccc(Cl)c(c13)-c1c(nn(C)c1C)CSCc1cc(n(C)n1)CSc1cc(cc3c1CCC3)OCCC2 (single isomer, unassigned) [Example 12-2, (Sa)-17-Chloro-5,13,14,22-tetramethyl-28-oxa-2,9-dithia-5,6,12,13,24-pentaazaheptacyclo[27.6.1.1^4,7.0^11,15.0^16,21.0^20,24.0^30,35]heptatriaconta-1(36),4(37),6,11,14,16,18,20,22,29,31(35)-undecaene-23-carboxylic acid] |  | 5.7 | 100 | 
Cc1c(C(=O)O)n2c3ccc(Cl)c(c13)-c1c(nn(C)c1C)CSCc1cc(n(C)n1)CSc1cc3c(c(c1)OCCC2)CCC3 (single isomer, unassigned) [Example 13-2, (Sa)-17-Chloro-5,13,14,22-tetramethyl-28-oxa-2,9-dithia-5,6,12,13,24-pentaazaheptacyclo[27.6.1.1^4,7.0^11,15.0^16,21.0^20,24.0^30,34]heptatriaconta-1(36),4(37),6,11,14,16,18,20,22,29,34-undecaene-23-carboxylic acid] |  | 4.4 |  | 99
CCc1c(C(=O)O)n2c3ccc(Cl)c(c13)-c1c(nn(C)c1C)CSCc1cc(n(C)n1)CSc1cc(c3ccccc3c1)OCCC2 (single isomer, unassigned) [Example 14-1, (Ra)-17-Chloro-22-ethyl-5,13-14-trimethyl-28-oxa-2,9-dithia-5,6,12,13,24-pentaazaheptacyclo[27.7.1.1^4,7.0^11,15.0^16,21.0^20,24.0^30,35]octatriaconta-1(37),4(38),6,11,14,16,18,20,22,29,31,33,35-tridecaene-23-carboxylic acid] | 100 | 0.32 |  | 
Cc1c2c(nn1C)CSCc1cc(n(C)n1)CSc1cc(c3ccccc3c1)OCCCn1c(C(=O)O)cc3c-2c(Cl)ccc31 [Example 1, 17-Chloro-5,13-14-trimethyl-28-oxa-2,9-dithia-5,6,12,13,24-pentaazaheptacyclo[27.7.1.1^4,7.0^11,15.0^16,21.0^20,24.0^30,35]octatriaconta-1(37),4(38),6,11,14,16,18,20,22,29,31,33,35-tridecaene-23-carboxylic acid] | 100 | 2.39 |  | 
Cc1c(C(=O)O)n2c3ccc(Cl)c(c13)-c1c(nn(C)c1C)CSCc1cc(n(C)n1)CSc1cc(c3ccccc3c1)OCCC2 [Example 2, 17-Chloro-5,13,14,22-tetramethyl-28-oxa-2,9-dithia-5,6,12,13,24-pentaazaheptacyclo[27.7.1.1^4,7.0^11,15.0^16,21.0^20,24.0^30,35]octatriaconta-1(37),4(38),6,11,14,16,18,20,22,29,31,33,35-tridecaene-23-carboxylic acid] | 99 | 0.18 |  | 
Cc1c(C(=O)O)n2c3ccc(Cl)c(c13)-c1c(nn(C)c1C)CN(C)Cc1cc(n(C)n1)CSc1cc(c3ccccc3c1)OCCC2 [Example 3, 17-Chloro-5,9,13,14,22-pentamethyl-28-oxa-2-thia-5,6,9,12,13,24-hexaazaheptacyclo[27.7.1.1^4,7.0^11,15.0^16,21.0^20,24.0^30,35]octatriaconta-1(37),4(38),6,11,14,16,18,20,22,29,31,33,35-tridecaene-23-carboxylic acid] | 100 | 0.6 |  | 
Cc1c(C(=O)O)n2c3ccc(Cl)c(c13)-c1c(nn(C)c1C)CSCc1cc(n(C)n1)CCc1cc(c3ccccc3c1)OCCC2 [Example 4, 17-Chloro-5,13,14,22-tetramethyl-28-oxa-9-thia-5,6,12,13,24-pentaazaheptacyclo[27.7.1.1^4,7.0^11,15.0^16,21.0^20,24.0^30,35]octatriaconta-1(37),4(38),6,11,14,16,18,20,22,29,31,33,35-tridecaene-23-carboxylic acid] | 99 | 1.35 |  | 
Cc1cc2cc(c1)SCc1cc(nn1C)CN(C)Cc1nn(C)c(C)c1-c1c(Cl)ccc3c1c(C)c(C(=O)O)n3CCCO2 [Example 5, 17-Chloro-5,9,13,14,22,31-hexamethyl-28-oxa-2-thia-5,6,9,12,13,24-hexaazahexacyclo[27.3.1.1^4,7.0^11,15.0^16,21.0^20.24]tetratriaconta-1(33),4(34),6,11,14,16,18,20,22,29,31-undecaene-23-carboxylic acid] | 99 | 4.8 |  | 
Cc1cc2cc(c1)SCc1cc(nn1C)CSCc1nn(C)c(C)c1-c1c(Cl)ccc3c1c(C)c(C(=O)O)n3CCCO2 [Example 6, 17-Chloro-5,13,14,22,31-pentamethyl-28-oxa-2,9-dithia-5,6,12,13,24-pentaazahexacyclo[27.3.1.1^4,7.0^11,15.0^16,21.0^20,24]tetratriaconta-1(33),4(34),6,11,14,16,18,20,22,29,31-undecaene-23-carboxylic acid] | 98 | 1.9 |  | 
Cc1c(C(=O)O)n2c3ccc(Cl)c(c13)-c1c(nn(C)c1C)CSCc1cc(n(C)n1)CSc1cc3c(c(c1)OCCC2)CCCC3 [Example 7, 17-Chloro-5,13,14,22-tetramethyl-28-oxa-2,9-dithia-5,6,12,13,24-pentaazaheptacyclo[27.7.1.1^4,7.0^11,15.0^16,21.0^20,24.0^30,35]octatriaconta-1(37),4(38),6,11,14,16,18,20,22,29,35-undecaene-23-carboxylic acid] | 99 | 0.71 |  | 
